# In US7309712B2, “1H-pyrazoles useful in therapy” (Pfizer Limited, priority 2005, dated 2007):
# Molecular target: T1, Progesterone Receptor (PR) (Homo sapiens, UniProt P06401)
# T1 construct: endogenous in cells; host or cells: T47D human breast mammary carcinoma cells
# T1 sequence (P06401 1-933): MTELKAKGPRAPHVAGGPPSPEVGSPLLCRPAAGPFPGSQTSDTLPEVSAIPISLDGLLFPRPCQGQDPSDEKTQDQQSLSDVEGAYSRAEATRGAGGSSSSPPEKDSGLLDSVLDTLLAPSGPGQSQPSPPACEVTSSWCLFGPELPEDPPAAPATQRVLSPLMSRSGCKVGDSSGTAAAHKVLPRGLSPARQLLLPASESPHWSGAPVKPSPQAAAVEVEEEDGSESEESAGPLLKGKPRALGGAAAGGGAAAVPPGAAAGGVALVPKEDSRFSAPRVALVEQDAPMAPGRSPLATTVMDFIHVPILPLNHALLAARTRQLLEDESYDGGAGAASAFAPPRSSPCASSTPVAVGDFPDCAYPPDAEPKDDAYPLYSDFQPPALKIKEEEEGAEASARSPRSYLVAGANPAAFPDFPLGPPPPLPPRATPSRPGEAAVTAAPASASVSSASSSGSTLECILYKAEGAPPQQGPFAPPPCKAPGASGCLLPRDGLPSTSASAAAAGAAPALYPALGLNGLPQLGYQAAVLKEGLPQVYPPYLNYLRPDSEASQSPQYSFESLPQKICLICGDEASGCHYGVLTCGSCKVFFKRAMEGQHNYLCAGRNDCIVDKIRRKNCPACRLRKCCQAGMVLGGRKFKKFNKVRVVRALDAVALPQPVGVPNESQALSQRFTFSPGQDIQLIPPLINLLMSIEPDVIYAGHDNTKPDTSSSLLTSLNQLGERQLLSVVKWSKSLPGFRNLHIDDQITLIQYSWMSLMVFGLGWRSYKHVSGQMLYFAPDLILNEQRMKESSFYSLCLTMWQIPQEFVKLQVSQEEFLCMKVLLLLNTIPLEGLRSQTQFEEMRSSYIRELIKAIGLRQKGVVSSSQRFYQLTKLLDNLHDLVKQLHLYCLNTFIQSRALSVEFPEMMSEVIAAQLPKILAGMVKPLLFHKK
# Assay: In vitro functional assay for progesterone receptor (PR) antagonism: inhibition of progesterone-induced alkaline phosphatase expression in T47D cells (Screen 1.0)
# Format: cell-based
# Settings: antagonist format (5 nM P4), alkaline phosphatase inhibition in T47D human mammary carcinoma cells
# Excerpt: 1.0 In Vitro Functional Assay for Progesterone Receptor (PR) Antagonism
# The assay for PR antagonism takes advantage of the extensively reported modulation of alkaline phosphatase (AP) expression in human breast T47D mammary carcinoma cells {Beck, et al., (1993). The progesterone antagonist RU486 acquires agonist activity upon stimulation of cAMP signalling pathways. Proc. Natl. Acad. Sci., USA, 90, 4441-4445; Fensome, et al. (2002). New progesterone receptor antagonists: 3,3-disubstituted-5-aryloxindoles. Bioorg. Med. Chem. Lett., 12, 3487-3490; Zhang et al., (2002a). 6-Aryl-1,4-dihydro-benzo d 1,3 oxazin-2-ones: a novel class of potent, selective, and orally active nonsteroidal progesterone receptor antagonists. J. Med. Chem., 45, 4379-4382; Zhang et al., (2003). Novel 6-aryl-1,4-dihydrobenzo[d]oxazine-2-thiones as potent, selective, and orally active nonsteroidal progesterone receptor agonists. Bioorganic & Med. Chem. Lett., 13, 1313-1316; Zhang et al., (2002b). Potent nonsteroidal progesterone receptor agonists: synthesis and SAR study of 6-aryl benzoxazines. Bioorganic & Med. Chem. Lett., 12, 787-790; Zhang, et al., (2000). In vitro characterization of trimegestone: a new potent and selective progestin. Steroids 65, 637-643}. […] In the absence of progesterone any agonist activity is also observed as an induction of AP activity. By running the assay in two formats (±progesterone (P4)), compounds behaving as PR antagonists, agonists or partials can be identified.
# The materials required to grow T47D cells and perform the progesterone-induced AP assay are outlined in Table 1.
# Assay media (agonist format): DMEM without phenol red+5% CS-FCS+2 mM Glutamax. Assay media (antagonist format): DMEM without phenol red+5% CS-FCS+2 mM Glutamax+10 nM P4.
# Briefly, T47D cells are grown by propagating in DMEM+10% FBS+2 mM Glutamax at 37° C./5% CO2. At 80-90% confluence, the media is exchanged for phenol red free DMEM+5% CS-FCS (Assay media) and cultured for a further 24 hrs at 37° C./5% CO2. T47D cells are then plated at 2.5×10^4 cells/well in 100 μL assay media in sufficient 96 well plates for the assay, in triplicates of each condition. For example, for a 5-point IC50 curve on one compound, this is equivalent to […]. These plates are then cultured for 24 hrs at 37° C./5% CO2, leaving the outside wells blank by the addition of 200 μL PBS.
# A 10 mM stock solution of compounds is prepared in DMSO (stored −20° C. in 10 μL aliquots). A 10 mM DMSO stock of RU486 is used as a standard pure PR antagonist. The compounds under investigation are added to assay medium, or a mixture of 0.05% pluronic acid in PBS, ±10 nM P4 to give a final concentration of 20 μM (i.e. 10 μL of the 10 mM stock to […] assay medium ±10 nM P4). The samples are mixed thoroughly and serial dilutions of compounds from 10 µM to 0.1 nM in a 96 well plate, are prepared as follows:
# The outside wells are left blank. Assay medium (225 μL) is added to one half of the plate (−P4), rows 3-8, and to the other half of the plate, assay medium +10 nM P4. To row 2, 250 μL of the top concentration of compound (20 μM±10 nM P4) is added. 25 μL of the […] stock from row 2 is removed and added to the 225 μL of assay medium±10 nM P4 in row 3 and thoroughly mixed. This process is repeated down the plate to row 7 to achieve serial dilutions. The vehicle control is adjusted to contain 0.1% DMSO (i.e. 20 μL to 10 mL assay medium±10 nM P4 to give a concentration of 0.2% DMSO, add 250 μL to row 8).
# 100 μL of reagent from the dilution plates are transferred into the corresponding wells containing T47D cells assay medium, to give a final concentration of 10 μM to 0.1 nM compound (5 nM P4 antagonist format). The cells were incubated for 20 hrs at 37° C./5% CO2., then media is removed, cells washed with PBS (200 μL) and lysed by placing the cells at −80° C. for 15 min and thawing at room temp. The freeze-thaw lysis is repeated, then PBS (50 μL) is added to each well. […]
row,IC50 [nM],Compound
1,8,"Cc1cc(Oc2c(C3CC3)nn(CS(C)(=O)=O)c2C2CC2)cc(C)c1C#N [Example 3, 4-(3,5-dicyclopropyl-1-methanesulfonylmethyl-1H-pyrazol-4-yloxy)-2,6-dimethyl-benzonitrile]"
2,6,"CCc1nn(CS(C)(=O)=O)c(CC)c1Oc1cc(C)c(C#N)c(C)c1 [Example 23, 4-(3,5-diethyl-1-methanesulfonylmethyl-1H-pyrazol-4-yloxy)-2,6-dimethyl-benzonitrile]"
3,22,"Cc1cc(Oc2c(C3CC3)nn(CS(C)(=O)=O)c2C)ccc1C#N [Example 17, 4-(3-cyclopropyl-1-methanesulfonylmethyl-5-methyl-1H-pyrazol-4-yloxy)-2-methyl-benzonitrile]"
4,7,"Cc1cc(Oc2c(C3CC3)nn(CS(C)(=O)=O)c2C)cc(C)c1C#N [Example 19, 4-(3-cyclopropyl-1-methanesulfonylmethyl-5-methyl-1H-pyrazol-4-yloxy)-2,6-dimethyl-benzonitrile]"
5,44,"CS(=O)(=O)Cn1nc(C2CC2)c(Oc2ccc(C#N)c(F)c2)c1C1CC1 [Example 5, 4-(3,5-dicyclopropyl-1-methanesulfonylmethyl-1H-pyrazol-4-yloxy)-2-fluoro-benzonitrile]"
6,15,"Cc1cc(Oc2c(C)nn(CS(C)(=O)=O)c2C2CC2)cc(C)c1C#N [Example 20, 4-(5-cyclopropyl-1-methanesulfonylmethyl-3-methyl-1H-pyrazol-4-yloxy)-2,6-dimethyl-benzonitrile]"

# System: not given
# Assay: not given
# Settings: not given
row,melting point [°C],Compound
1,141.5 to 142.5,"CS(=O)(=O)Cn1nc(C2CC2)c(Oc2ccc(C#N)cc2)c1C1CC1 [Example 1, 4-(3,5-Dicyclopropyl-1-methanesulfonylmethyl-1H-pyrazol-4-yloxy)-benzonitrile]"
2,140.7 to 141.3,"Cc1cc(Oc2c(C3CC3)nn(CS(C)(=O)=O)c2C2CC2)ccc1C#N [Example 2, 4-(3,5-dicyclopropyl-1-methanesulfonylmethyl-1H-pyrazol-4-yloxy)-2-methyl-benzonitrile]"
